Measured values taken from patent EP0156785A1, “2-(Aminoalkyl)-acrylophenones, their preparation and their use” (S.A.R.L. GALEPHAR, priority 1984, dated 1985).

Experiments:
rat = test: Triton WR 1339-induced hyperlipidaemia in the rat (plasma triglycerides and cholesterol); type: in vivo; conditions: Triton WR 1339 175 mg/kg (IV), plasma 24 h after Triton
Protocol: Cette propriété a été mise en évidence chez le rat au moyen de la méthode utilisant le Triton WR 1339 comme inducteur d'hyperlipémie.
Quatre heures après l'injection I.V. aux rats de 175 mg de Triton WR 1339 par kg de poids corporel, on leur injecte par voie intrapéritonéale soit du sérum physiologique (témoins) soit la substance à étudier. Les rats sont sacrifiés 24 heures après l'injection du Triton WR 1339 et les plasmas recueillis pour les dosages (résultats : Tableau I) des triglycérides et du cholestérol.

plaquettes = test: Platelet anti-aggregation activity, aggregation induced by adenosine triphosphate; type: cell-based; conditions: dose reducing platelet aggregation by 50%; inducer adénosine triphosphate; read-out: D.E.50 (the source's name)
Excerpt: Les propriétés antiagrégantes plaquettaires des acrylophénones de la présente invention ont été mises en évidence au moyen d'adénosine triphosphate choisi comme agent inducteur de l'agrégation plaquettaire.
Les doses efficaces réduisant de 50% l'agrégation des plaquettes (D.E.50) ont été déterminées (Tableau II). Ces résultats montrent que les substances agissent à des doses de l'ordre micromolaire.

[1] = Qualitative solubility of the isolated product; type: physicochemical
Protocol: 3 g (0,1 M) de trioxyméthylène et 8,65 g (0,05 M) de dichlorhydrate de N-méthylpipérazine sont ajoutés à 6 g d'acétophénone dans 20 ml d'acide acétique. Le mélange est chauffé à reflux pendant 3 h. Le solvant est éliminé et le résidu jaune huileux est dissous dans 50 ml d'éthanol. Après élimimation du solvant, le résidu cristallise dans du méthanol.

[2] = treatment 4 mg/kg (IP) 4 h after Triton
[3] = treatment 2 mg/kg (IP) 4 h after Triton

| Compound | Diminution(%)sous l'influence du traitement cholestérolémie (rat; [2]) | Diminution(%)sous l'influence du traitement triglycéridémie (rat; [2]) | IC50 (plaquettes) | Diminution(%)sous l'influence du traitement cholestérolémie (rat; [3]) | Diminution(%)sous l'influence du traitement triglycéridémie (rat; [3]) | solubilité dans l'acétone ([1]; acetone) | solubilité dans l'alcool ([1]; alcohol) | solubilité dans l'eau ([1]; water) |
| --- | --- | --- | --- | --- | --- | --- | --- | --- |
| C=C(CN1CCOCC1)C(=O)c1ccccc1 [chlorhydratede 2-(1-morpholinométhyl)-acrylophénone] | 51,0% | 44,5% | 1940 nM | – | – | – | – | – |
| C=C(CN(C)C)C(=O)c1ccccc1 [chlorhydratede 2-(N,N-diméthylaminométhyl)-acrylophénone] | – | – | 1130 nM | 48% | 36,5% | – | – | – |
| C=C(CN1CCN(C)CC1)C(=O)c1ccccc1 [Exemple 1, Dichlorhydratede 2-(4-méthyl-1-pipérazinylméthyl)acrylophénone] | 57,5% | 47% | 1320 nM | – | – | pratiquement insoluble dans l'acétone | peu soluble dans l'alcool | très soluble dans l'eau |
